Test results from patent publication US6235891A, “Glucocorticoid receptor agonist and decreased PP5” (South Alabama Medical Science Foundation, priority 1999, dated 2001).

Tested on: PP5 mRNA
Test: Northern blot analysis of PP5 mRNA expression in A549 cells
Assay type: cell-based, human
Set-up: key to Activity class in initial screen (PP5 mRNA reduction): oligonucleotides giving a reduction of PP5 mRNA of approximately 50% or greater were considered active
Settings: for Activity class in initial screen (PP5 mRNA reduction) / Percent Inhibition of PP5 mRNA: 300 nM oligonucleotide; for Percent Inhibition of PP5 mRNA: four hours, lipofectin, approximate, compared to control
Excerpt: The oligonucleotides shown in Table 1 were designed using the Genbank sequences HSSERTHRP (Genbank accession number X92121), HSRNAPPP5 (Genbank accession number X89416) and PPP5C (Genbank accession number U25174), synthesized and tested for inhibition of PP5 mRNA expression in A549 cells using a Northern blot assay. All oligonucleotides shown in Table 1 are chimeric oligonucleotides with central 2'-deoxy "gaps," which have phosphorothioate backbones, flanked on both sides by 2'-methoxyethoxy (2'-MOE) "wings" (shown in bold), which have phosphodiester backbones. All cytosines in the 2'-MOE wings are 5-methylcytosines.
In the initial screen, A549 cells were treated with oligonucleotides at a concentration of 300 nM oligonucleotide for four hours in the presence of […] lipofectin. Results were normalized and expressed as a percent of control. The effect of each oligonucleotide on levels of PP5 mRNA, expressed as approximate percent inhibition compared to control, is shown in Table 1. In this initial screen, oligonucleotides giving a reduction of PP5 mRNA of approximately 50% or greater were considered active. […] These sequences (SEQ ID NO: 1, 2, 3, 4, 6, 7 and 12, respectively, SEQ ID Nos shown in bold in Table 1) are therefore preferred.
These oligonucleotides were tested for their ability to reduce PP5 mRNA levels in A549 cells, using oligonucleotide doses of 25 to 500 nM.
The human lung tumor cell line A549 was obtained from the American Type Culture Collection (Rockville Md.) and were grown in DMEM (Gibco BRL, Gaithersburg Md.), supplemented with 10% fetal calf. Cells were seeded on 60 mm plates. When they reached 70% confluency, they were washed with DMEM and 1 ml of DMEM containing 15 μg/ml DOTMA/DOPE (Lipofectin®, GIBCO-BRL) and oligonucleotide at desired concentration was added. Duplicate dishes were used for each treatment condition. After 4 hours of treatment at 37°, cells were washed and cultured in fresh DMEM containing 10% fetal bovine serum for an additional 17 hours. Cells were then harvested and total RNA was extracted with TRIzol Reagent (GIBCO-BRL) according to manufacturer's protocol. Total RNA (20 μg) was fractionated on a 1% agarose gel containing formaldehyde, and transferred to a DURLON-UV (Stratagene) nylon membrane. Following UV crosslinking, the filters were hybridized with the appropriate protein phosphatase probe. The ^32 P-labeled human PP cDNA probes are generated with DECAPrime® DNA Labeling Kit (Ambion) according to the manufacturer's protocol. Hybridization was performed in a hybridization solution containing 50% formamide at 42° for 16 hours. This was followed by two low stringency washes (2×SSC) at room temperature and two high stringency washes (0.1×SSC/0.5% SDS) at 55° C. Hybridization signals were visualized by autoradiography, and filters were then stripped and reprobed with a ^32 P-labeled glyceraldehyde-3-phosphate dehydrogenase (GAPDH) probe to confirm equal loading. The densities of hybridization signals were measured with the NIH Image program (ImagePC).
The cells were harvested, and total RNA was extracted with TRIzol® Reagent according to the methods of the manufacturer. Total RNA (20 μg) was fractionated on 1% agarose gels containing formaldehyde and transferred to DURLON-UV nylon membranes (Stratagene). Following UV cross-linking, the filters were hybridized with a [α^32 P]probe for human PP5. The human PP5 cDNA probe was generated from the full length coding region of PP5 and [α^32 P]-dATP was labeled with DECAprime® DNA Labeling Kit according to the manufacturer's protocol. Hybridization was performed in the presence of 50% formamide, 0.1 M Pipes, 0.8 M NaCl, 5×Denhardt's solution, 100 μg/ml denatured herring sperm DNA, 1×10^6 cpm/ml [α-^32 P]-labeled probe and 10% dextran sulfate at 42° C. for 16 hours. Following hybridization, the membrane was subjected to two low stringency washes (2×SSC) at room temperature and then two high stringency washes (0.1×SSC/0.5% SDS) at 55° C. […]

| Substance | Activity class in initial screen (PP5 mRNA reduction) | Percent Inhibition of PP5 mRNA | IC50 (doses of 25 to 500 nM, read-out: IC50 for reduction of PP5 mRNA levels) |
| --- | --- | --- | --- |
| ISIS 14498: chimeric 2'-MOE/deoxy gap antisense oligonucleotide to human PP5, coding; GTACTTGGCCTTCACCTCAC, SEQ ID NO: 6 (sugars by position and backbone not given here; chimeric 2'-MOE wings with deoxy gap) | active | – | – |
| ISIS 14499: chimeric 2'-MOE/deoxy gap antisense oligonucleotide to human PP5, coding; CCAGGTTGTTCTCTTCCAAG, SEQ ID NO: 7 (sugars by position and backbone not given here; chimeric 2'-MOE wings with deoxy gap) | active | 62% | – |
| ISIS 14496: chimeric 2'-MOE/deoxy gap antisense oligonucleotide to human PP5, coding; CCGCTGTACTCATCCTCAAT, SEQ ID NO: 4 (sugars by position and backbone not given here; chimeric 2'-MOE wings with deoxy gap) | active | 54% | – |
| ISIS 14504: chimeric 2'-MOE/deoxy gap antisense oligonucleotide to human PP5, 3' UTR; GGGCCCTATTGCTTGAGTGG, SEQ ID NO: 12 (sugars by position and backbone not given here; chimeric 2'-MOE wings with deoxy gap) | active | – | – |
| ISIS 14493: chimeric 2'-MOE/deoxy gap antisense oligonucleotide to human PP5, AUG; TCGCCCTCCGCCATCGCCAT, SEQ ID NO: 1 (sugars by position and backbone not given here; chimeric 2'-MOE wings with deoxy gap) | active | – | – |
| ISIS 14500: chimeric 2'-MOE/deoxy gap antisense oligonucleotide to human PP5, coding; AGAGCCCTGGAGGTGGATGT, SEQ ID NO: 8 (sugars by position and backbone not given here; chimeric 2'-MOE wings with deoxy gap) | – | 41% | – |
| ISIS 14494: chimeric 2'-MOE/deoxy gap antisense oligonucleotide to human PP5, coding; TTCAGAGCTCCATCAGCCGG, SEQ ID NO: 2 (sugars by position and backbone not given here; chimeric 2'-MOE wings with deoxy gap) | active | 52% | – |
| ISIS 14505: chimeric 2'-MOE/deoxy gap antisense oligonucleotide to human PP5, 3' UTR; CCCAGCCTAGCCCCACCATG, SEQ ID NO: 13 (sugars by position and backbone not given here; chimeric 2'-MOE wings with deoxy gap) | – | 23% | – |
| ISIS 14502: chimeric 2'-MOE/deoxy gap antisense oligonucleotide to human PP5, 3' UTR; CCTACCCCCTCTGCAAACCT, SEQ ID NO: 10 (sugars by position and backbone not given here; chimeric 2'-MOE wings with deoxy gap) | – | 40% | – |
| ISIS 14495: chimeric 2'-MOE/deoxy gap antisense oligonucleotide to human PP5, coding; GTAGGCCAGGCTGCGGTTGC, SEQ ID NO: 3 (sugars by position and backbone not given here; chimeric 2'-MOE wings with deoxy gap) | active | 66% | – |
| ISIS 15523: chimeric PP5 antisense oligonucleotide, wider deoxy gap, uniformly phosphorothioate; GGGCCCTATTGCTTGAGTGG, SEQ ID NO: 12 (all phosphorothioate, sugars by position and methylation of C not given here; chimeric with deoxy gap) | – | – | ~100 nM |
| ISIS 14503: chimeric 2'-MOE/deoxy gap antisense oligonucleotide to human PP5, 3' UTR; GCCCCAGCTGCTCCACCTCC, SEQ ID NO: 11 (sugars by position and backbone not given here; chimeric 2'-MOE wings with deoxy gap) | – | 27% | – |
| ISIS 14497: chimeric 2'-MOE/deoxy gap antisense oligonucleotide to human PP5, coding; TCCCCACATACTGTAATCTT, SEQ ID NO: 5 (sugars by position and backbone not given here; chimeric 2'-MOE wings with deoxy gap) | – | 11% | – |
| ISIS 14501: chimeric 2'-MOE/deoxy gap antisense oligonucleotide to human PP5, stop codon; CGCCCCGCCCGTCACCTCAC, SEQ ID NO: 9 (sugars by position and backbone not given here; chimeric 2'-MOE wings with deoxy gap) | – | 42% | – |
